SMILES strings stand for the structures.

In patent US8673951B2, “Isoxazoline-substituted benzamide compound and pesticide” (priority 2005, dated 2014) one finds pest or weed control data, which are given here for 24 compounds.

The subject of test [1] is cabbage moth (Plutella xylostella). Briefly: Insecticidal test against cabbage moth (Test Example 1). The note with it: foliar, 144 h, read-out: insecticidal rate (rate of dead insects). It is filed as in vivo.
For test [2], the system named is common cutworm (Spodoptera litura). Briefly: Insecticidal test against common cutworm (Test Example 2). Type of test: in vivo. The conditions noted are these: in Brassica oleracea, foliar, 144 h, read-out: insecticidal rate (rate of dead insects). The method, then:
A 10% emulsifiable concentrate (depending on the compounds, 10% wettable powder was applied for the test) of the compound of the present invention was diluted with water […] To the chemical solution was dipped leaves of cabbage for about 10 seconds, and after air-drying, they were placed in a laboratory dish, then 5-common cutworm (Spodoptera litura) in the stage of second instar larva per the dish were released therein, and the dish was covered with a lid and contained at a thermostat chamber at 25° C. […] Incidentally, the test was carried out with two districts.

Regarding `COC(=O)N(C(=O)c1ccc(C2=NOC(c3cc(Cl)cc(Cl)c3)(C(F)(F)F)C2)cc1C)c1cncnc1` (stereo not shown) [5-169, Methyl N-[4-[5-(3,5-dichlorophenyl)-5-trifluoromethyl-4,5-dihydro-isoxazole-3-yl]-2-methylbenzoyl]-N-(5-pyrimidinyl)carbamate], the pest or weed control at 10 ppm in test [1] and in test [2] was not below 80% in each case.
With `CON=CN(C)C(=O)c1ccc(C2=NOC(c3cc(Cl)cc(Cl)c3)(C(F)(F)F)C2)cc1C` (stereo not shown) [7-002, 4-[5-(3,5-Dichlorophenyl)-5-trifluoromethyl-4,5-dihydroisoxazole-3-yl]-N-(methoxyiminomethyl)-N-methyl-2-methylbenzoic acid amide], the pest or weed control at 10 ppm in test [1] and in test [2] was not below 80% in each case.
As to `CCc1cc(C2=NOC(c3cc(Cl)cc(Cl)c3)(C(F)(F)F)C2)ccc1C(=O)N/C=N\OC` (stereo not shown) [6-020, (Z)-4-[5-(3,5-Dichlorophenyl)-5-trifluoromethyl-4,5-dihydroisoxazole-3-yl]-2-ethyl-N-(methoxyiminomethyl)benzoic acid amide], the pest or weed control at 10 ppm in test [1] and in test [2] was not below 80% in each case.
Take `COC(=O)N(C(=O)c1ccc(C2=NOC(c3cc(Cl)cc(Cl)c3)(C(F)(F)F)C2)cc1C)c1ccc(Cl)cn1` (stereo not shown) [5-060, Methyl N-(5-chloro-2-pyridyl)-N-[4-[5-(3,5-dichlorophenyl)-5-trifluoromethyl-4,5-dihydro-isoxazole-3-yl]-2-methylbenzoyl]carbamate]: the pest or weed control at 100 ppm in test [1] and in test [2] was not below 80% in each case.
In the case of `Cc1cc(C2=NOC(c3cc(Cl)cc(Cl)c3)(C(F)(F)F)C2)ccc1C(=O)N(C)c1cccc(Br)n1` (stereo not shown) [5-075, N-(6-Bromo-2-pyridyl)-4-[5-(3,5-dichlorophenyl)-5-trifluoromethyl-4,5-dihydro-isoxazole-3-yl]-N-methyl-2-methyl benzoic acid amide], the pest or weed control at 10 ppm in test [1] and in test [2] was not below 80% each time.
As for `COCc1cc(C2=NOC(c3cc(Cl)cc(Cl)c3)(C(F)(F)F)C2)ccc1C(=O)NC(=N)OC` (stereo not shown) [6-031, 4-[5-(3,5-Dichlorophenyl)-5-trifluoromethyl-4,5-dihydroisoxazole-3-yl]-N-(methoxy-iminomethyl)-2-methoxymethyl benzoic acid amide], the pest or weed control at 10 ppm in test [1] and in test [2] was not below 80% in each case.
For `CON=CNC(=O)c1ccc(C2=NOC(c3cc(Cl)cc(C(F)(F)F)c3)(C(F)(F)F)C2)cc1C` (stereo not shown) [6-037, 4-[5-(3-Chloro-5-trifluoromethylphenyl)-5-trifluoromethyl-4,5-dihydroisoxazole-3-yl]-N-(methoxyiminomethyl)-2-methyl benzoic acid amide], the pest or weed control at 10 ppm in test [1] and in test [2] was not below 80% throughout.
Regarding `Cc1cc(C2=NOC(c3cc(Cl)cc(Cl)c3)(C(F)(F)F)C2)ccc1C(=O)NC(N)=O` (stereo not shown) [4-002, N-Carbamoyl-4-[5-(3,5-dichlorophenyl)-5-trifluoromethyl-4,5-dihydro-isoxazole-3-yl]-2-methyl benzoic acid amide], the pest or weed control at 100 ppm in test [1] and in test [2] was not below 80% each time.
In the case of `CC(=O)N(C(=O)c1ccc(C2=NOC(c3cc(Cl)cc(Cl)c3)(C(F)(F)F)C2)cc1C)n1cccn1` (stereo not shown) [5-044, N-Acetyl-4-[5-(3,5-dichlorophenyl)-5-trifluoromethyl-4,5-dihydroisoxazole-3-yl]-2-methyl-N-(1-pyrazolyl)benzoic acid amide], the pest or weed control at 100 ppm in test [1] and in test [2] was not below 80% in each case.
Take `CON=CNC(=O)c1ccc(C2=NOC(c3cc(Cl)cc(Cl)c3)(C(F)(F)F)C2)cc1CN(C)C` (stereo not shown) [6-032, 4-[5-(3,5-Dichlorophenyl)-5-trifluoromethyl-4,5-dihydroisoxazole-3-yl]-2-(dimethylaminomethyl)-N-(methoxyiminomethyl)benzoic acid amide]: the pest or weed control at 500 ppm in test [1] was not below 80%.
For `CC(=O)N(C(=O)c1ccc(C2=NOC(c3cc(Cl)cc(Cl)c3)(C(F)(F)F)C2)cc1C)c1cccc(Cl)n1` (stereo not shown) [5-073, N-Acetyl-N-(6-chloro-2-pyridyl)-4-[5-(3,5-dichlorophenyl)-5-trifluoromethyl-4,5-dihydroisoxazole-3-yl]-2-methyl benzoic acid amide], the pest or weed control at 10 ppm in test [1] and in test [2] was not below 80% in each case.
Turning to `COC(=O)N(C(=O)c1ccc(C2=NOC(c3cc(Cl)cc(Cl)c3)(C(F)(F)F)C2)cc1C)c1ccc(C#N)cn1` (stereo not shown) [5-071, Methyl N-(5-cyano-2-pyridyl)-N-[4-[5-(3,5-dichlorophenyl)-5-trifluoromethyl-4,5-dihydro-isoxazole-3-yl]-2-methylbenzoyl]carbamate], the pest or weed control at 10 ppm in test [1] and in test [2] was not below 80% in each case.
With `COC(=O)N(COCC(F)(F)F)C(=O)c1ccc(C2=NOC(c3cc(Cl)cc(Cl)c3)(C(F)(F)F)C2)cc1C` (stereo not shown) [3-032, Methyl N-[4-[5-(3,5-dichlorophenyl)-5-trifluoromethyl-4,5-dihydro-isoxazole-3-yl]-2-methylbenzoyl]-N-(2,2,2-trifluoroethoxymethyl)carbamate], the pest or weed control at 10 ppm in test [1] and in test [2] was not below 80% each time.
Consider `COC(=O)N(C(=O)c1ccc(C2=NOC(c3cc(Cl)cc(Cl)c3)(C(F)(F)F)C2)cc1C)C1CCCO1` (stereo not shown) [3-077, Methyl N-[4-[5-(3,5-dichlorophenyl)-5-trifluoromethyl-4,5-dihydro-isoxazole-3-yl]-2-methylbenzoyl]-N-(2-tetrahydrofuranyl)carbamate], for which the pest or weed control at 10 ppm in test [1] and in test [2] was not below 80% each time.
As to `COC(=O)N(C(=O)c1ccc(C2=NOC(c3cc(Cl)cc(Cl)c3)(C(F)(F)F)C2)cc1C)c1ncccn1` (stereo not shown) [5-014, Methyl N-[4-[5-(3,5-dichlorophenyl)-5-trifluoromethyl-4,5-dihydroisoxazole-3-yl]-2-methylbenzoyl]-N-(2-pyrimidinyl)carbamate], the pest or weed control at 100 ppm in test [1] and in test [2] was not below 80% each time.
`Cc1cc(C2=NOC(c3cc(Cl)cc(Cl)c3)(C(F)(F)F)C2)ccc1C(=O)N(C)C1(Cl)N=CC=CN1` (stereo not shown) [5-172, N-(2-Chloro-2-pyrimidinyl)-4-[5-(3,5-dichlorophenyl)-5-trifluoromethyl-4,5-dihydro-isoxazole-3-yl]-N-methyl-2-methyl benzoic acid amide]: the pest or weed control at 500 ppm in test [1] is not below 80%. Besides, in test [2], the pest or weed control at 10 ppm is not below 80%.
On to `Cc1cc(C2=NOC(c3cc(Cl)cc(Cl)c3)(C(F)(F)F)C2)ccc1C(=O)N(C)c1ncc(C#N)cn1` (stereo not shown) [5-171, N-(5-Cyano-2-pyrimidinyl)-4-[5-(3,5-dichlorophenyl)-5-trifluoromethyl-4,5-dihydroisoxazole-3-yl]-N-methyl-2-methyl benzoic acid amide], for which the pest or weed control at 10 ppm in test [1] and in test [2] was not below 80% each time.
For `COC(=O)NC(=O)c1c(C)cc(C2=NOC(c3cc(Cl)cc(Cl)c3)(C(F)(F)F)C2)cc1I` (stereo not shown) [2-019, Methyl N-[4-[5-(3,5-dichlorophenyl)-5-trifluoromethyl-4,5-dihydroisoxazole-3-yl]-6-iodo-2-methylbenzoyl]carbamate], the pest or weed control at 500 ppm in test [1] was not below 80%.
For `CCN(C(=O)NC(=O)c1ccc(C2=NOC(c3cc(Cl)cc(Cl)c3)(C(F)(F)F)C2)cc1C)C(=O)OC` (stereo not shown) [4-011, N-[4-[5-(3,5-dichlorophenyl)-5-trifluoromethyl-4,5-dihydro-isoxazole-3-yl]-2-methylbenzoyl]-N′-ethyl-N′-methoxycarbonyl urea], the pest or weed control at 10 ppm in test [1] and in test [2] was not below 80% throughout.
Turning to `Cc1cc(C2=NOC(c3cc(Cl)cc(Cl)c3)(C(F)(F)F)C2)ccc1C(=O)N(C)C(=O)NC(=O)CCl` (stereo not shown) [4-006, N-Chloroacetyl-N′-[4-[5-(3,5-dichlorophenyl)-5-trifluoromethyl-4,5-dihydroisoxazole-3-yl]-2-methylbenzoyl]-N′-methyl urea], the pest or weed control at 100 ppm in test [1] and in test [2] was not below 80% in each case.
For the compound `Cc1cc(C2=NOC(c3cc(Cl)cc(Cl)c3)(C(F)(F)F)C2)ccc1C(=O)N(C)C(N)=O` (stereo not shown) [4-003, N-Carbamoyl-4-[5-(3,5-dichlorophenyl)-5-trifluoromethyl-4,5-dihydroisoxazole-3-yl]-2-methyl-N-methyl benzoic acid amide], the pest or weed control at 100 ppm in test [1] and in test [2] was not below 80% throughout.
Turning to `COC(=O)NC(=O)c1ccc(C2=NOC(c3cc(Cl)c(Cl)c(Cl)c3)(C(F)(F)F)C2)cc1C` (stereo not shown) [2-026, Methyl N-[2-methyl-4-[5-(3,4,5-trichlorophenyl)-5-trifluoromethyl-4,5-dihydroisoxazole-3-yl]benzoyl]carbamate], the pest or weed control at 10 ppm in test [1] and in test [2] was not below 80% in each case.
Consider `Cc1cc(C2=NOC(c3cc(Cl)cc(Cl)c3)(C(F)(F)F)C2)ccc1C(=O)N(C)c1cncnc1` (stereo not shown) [5-164, 4-[5-(3,5-Dichlorophenyl)-5-trifluoromethyl-4,5-dihydroisoxazole-3-yl]-2-methyl-N-methyl-N-(5-pyrimidinyl)benzoic acid amide], for which the pest or weed control at 10 ppm in test [1] and in test [2] was not below 80% throughout.
On to `CON=CNC(=O)c1ccc(C2=NOC(c3cc(Cl)cc(Cl)c3)(C(F)(F)F)C2)cc1NC(C)=O` (stereo not shown) [6-033, 2-Acetylamino-4-[5-(3,5-dichlorophenyl)-5-trifluoromethyl-4,5-dihydroisoxazole-3-yl]-N-(methoxyiminomethyl)benzoic acid amide], for which the pest or weed control at 10 ppm in test [1] and in test [2] was not below 80% throughout.
